The text below walks through data of publication PMC11596392, “Enhanced Antibacterial, Anti-Inflammatory, and Antibiofilm Activities of Tryptophan-Substituted Peptides Derived from Cecropin A-Melittin Hybrid Peptide BP100” (Molecules, 2024).

The test system of experiment [1] is P. aeruginosa (KCTC 1637). Format: cell-based, Pseudomonas aeruginosa. As to conditions: broth microdilution in MHB, 37 °C, 24 h, 100% inhibition of growth. On the procedure: (§1) The antibacterial efficacy of the synthesized peptides was evaluated by determining the minimal inhibitory concentrations (MICs) against six standard bacterial strains and five drug-resistant bacterial strains using the Clinical and Laboratory Standards Institute (CLSI) microdilution method. Melittin served as the positive control.
(§2) The minimal inhibitory concentrations (MICs) of the peptides against bacterial strains were determined using a modified broth-microdilution method in accordance with the National Committee for Clinical Laboratory Standards (NCCLS) guidelines. Overnight cultures were diluted in cation-adjusted Mueller–Hinton Broth (MHB) to achieve an inoculum density of 2 × 10^6 CFU/mL. A two-fold serial dilution of the peptide solution (100 μL) was introduced into microtiter plates, followed by the addition of 100 μL of bacterial suspension. The plates were then incubated at 37 °C for 24 h to determine the MICs. Wells containing only culture media served as negative controls, while those with added bacteria functioned as positive controls. The MIC, expressed in μM, was defined as the lowest peptide concentration that prevented visible bacterial growth. This protocol was also employed to determine MICs in the presence of physiological salts (150 mM of NaCl, 4.5 mM of KCl, 6 μM of NH4Cl, 1 mM of MgCl2, 2.5 mM of CaCl2, and 4 μM of FeCl3) and 20% human serum to assess the peptides’ efficacy under conditions more closely resembling physiological environments. All experiments were conducted in triplicate and repeated three times independently to ensure reproducibility and statistical significance of the results.

The next experiment relates to MDRPA (CCARM 2109). Format: cell-based, multidrug-resistant Pseudomonas aeruginosa. As to conditions: broth microdilution in MHB, 37 °C, 24 h, 100% inhibition of growth. On the procedure:
as §1, §2

In experiment [2] the test system is MDRPA (CCARM 2095). Format: cell-based, multidrug-resistant Pseudomonas aeruginosa. As to conditions: broth microdilution in MHB, 37 °C, 24 h, 100% inhibition of growth. The protocol: as §1, §2
Experiment [3] deals with MDRPA (CCARM 2095) biofilm formation. Format: cell-based, multidrug-resistant Pseudomonas aeruginosa. Particulars: overnight 37 °C, crystal violet staining; for MBIC50: 50% inhibition; for MBIC90: 90% inhibition. From the text:
Bacterial biofilms, comprising communities of bacterial cells encased in a matrix of polysaccharides and nucleic acids, present a significant challenge for conventional antibiotics due to the protective nature of this matrix. Biofilms can enhance bacterial resistance to antibiotics by up to 1000-fold compared to planktonic bacteria. To address this issue, there is an urgent need to discover and develop novel alternative therapeutic agents capable of effectively combating biofilm-forming bacteria. […] Our research specifically focused on evaluating the impact of BP100 and its analogs on biofilm formation and eradication using multidrug-resistant Pseudomonas aeruginosa (MDRPA), a common pathogen responsible for biofilm-mediated nosocomial infections. The adhered biomass was quantified using crystal violet staining, and the minimum biofilm inhibitory concentration (MBIC90) was determined as the lowest concentration required to inhibit 90% of biofilm growth relative to the positive control. […] Human cathelicidin LL-37 is well-documented for its potent antibiofilm properties.
The inhibitory activity of the peptides on biofilm formation was evaluated against multidrug-resistant Pseudomonas aeruginosa (MDRPA) (CCARM 2095) using a biofilm inhibition assay to determine the minimal biofilm inhibitory concentration (MBIC). Peptide solutions were serially diluted in sterile water and aliquoted (100 μL) into a 96-well Costar polypropylene plate (Corning Inc., Corning, NY, USA). An equal volume of MDRPA suspension in Mueller–Hinton Broth (MHB), adjusted to 1 × 10^6 CFU/mL, was added to each well, resulting in a final inoculum density of 5 × 10^5 CFU/mL. Following overnight incubation at 37 °C, bacterial growth was quantified by measuring the optical density (OD) at 595 nm. Planktonic cells were then discarded, and the attached biofilms were washed thrice with distilled water. Residual biofilms were stained with 0.1% crystal violet for five minutes, washed to remove non-adherent dye, and subsequently destained using 95% ethanol. The OD at 595 nm was measured again to assess the biofilm mass. Control wells contained untreated bacteria. The MBIC was defined as the lowest peptide concentration that inhibited any residual crystal violet staining or biofilm formation. All assays were conducted in triplicate to ensure reproducibility. This method allows for the quantitative assessment of the peptides’ ability to prevent biofilm formation, a critical virulence factor in many bacterial infections, particularly those caused by multidrug-resistant strains.

The test system of experiment [4] is MDRPA (CCARM 2095). The class given is cell-based, multidrug-resistant Pseudomonas aeruginosa. From the text:
Multidrug-resistant pathogens pose a significant challenge to both human and animal health. The steady decline in the discovery of new antibiotics has exacerbated the difficulty in developing effective therapies for infection control. Consequently, there is an urgent need for alternative strategies that can combat pathogens without inducing drug resistance. One such strategy involves the combination of different antimicrobial agents. The effects of antimicrobial peptides (AMPs) combined with conventional antibiotics often surpass those of individual drugs. […] The primary advantage of synergistic combinations lies in their ability to lower the concentration of each antimicrobial agent required for effective antibacterial activity. This approach offers several benefits, including reduced production costs, a decreased risk of adverse side effects, diminished toxicity to mammalian cells, and a lower likelihood of drug resistance development. In light of these potential advantages, we investigated the synergistic effects of BP100 and the five selected analogs in combination with ciprofloxacin against multidrug-resistant Pseudomonas aeruginosa (MDRPA) using a checkerboard synergy assay. Ciprofloxacin, an antibiotic belonging to the fluoroquinolone class, is commonly used to treat various bacterial infections, including urinary tract infections and pneumonia. It exerts a bactericidal effect by inhibiting bacterial DNA gyrase, thereby disrupting DNA replication and transcription […]. The fractional inhibitory concentration index (FICI) results for BP100 and its selected analogs, when paired with ciprofloxacin against MDRPA, are detailed in Table 5. […] Such combinations may offer a valuable approach to enhancing the efficacy of existing antibiotics and potentially mitigating the development of antimicrobial resistance.
The synergistic effects of peptide-antibiotic combinations against methicillin-resistant Staphylococcus aureus (MRSA; CCARM 3089) and multidrug-resistant Pseudomonas aeruginosa (MDRPA; CCARM 2095) were evaluated using the fractional inhibitory concentration index (FICI) method. Antibiotics and peptides were subjected to two-fold serial dilutions, mixed in equal ratios, and combined with a bacterial suspension adjusted to approximately 10^6 CFU/mL. The resulting mixtures were distributed into microplate wells and incubated at 37 °C with orbital shaking at 200 rpm for 24 h. Bacterial growth was monitored by measuring the optical density at 600 nm (OD600). The FICI was calculated using the broth microdilution checkerboard method, defined as the sum of the ratios of the minimum inhibitory concentrations (MICs) of each agent in combination to their individual MICs, according to the following equation: FICI = (MIC of antibiotic in combination/MIC of antibiotic alone) + (MIC of peptide in combination/MIC of peptide alone). The interpretation of FICI values was as follows: FICI ≤ 0.5 indicates synergy; 0.5 < FICI ≤ 1.0 indicates an additive effect; 1.0 < FICI ≤ 4.0 indicates indifference; and FICI > 4.0 indicates antagonism.

Where no end group is shown, it is not given here.

Turning to `CC[C@H](C)[C@H](NC(=O)[C@H](CCCCN)NC(=O)[C@H](CCCCN)NC(=O)[C@H](Cc1c[nH]c2ccccc12)NC(=O)[C@H](CC(C)C)NC(=O)[C@H](CCCCN)NC(=O)[C@@H](N)CCCCN)C(=O)N[C@@H](CC(C)C)C(=O)N[C@@H](CCCCN)C(=O)N[C@@H](Cc1ccc(O)cc1)C(=O)N[C@@H](CC(C)C)C(N)=O` [BP1], the “Minimal Inhibitory Concentration (MIC)” value (in experiment [1]; in the experiment with MDRPA (CCARM 2109); in the experiment with MDRPA (CCARM 2095) [2]) was 16 µM each time. Also, the MBIC50 in experiment [3] lay in the range of 4 to 8 µM. The MBIC90 in experiment [3] turned out to be 8 µM.

As for `CC(C)C[C@H](NC(=O)[C@H](Cc1ccc(O)cc1)NC(=O)[C@H](CCCCN)NC(=O)[C@H](CC(C)C)NC(=O)[C@H](Cc1c[nH]c2ccccc12)NC(=O)[C@H](CCCCN)NC(=O)[C@H](CCCCN)NC(=O)[C@H](Cc1ccccc1)NC(=O)[C@H](CC(C)C)NC(=O)[C@H](CCCCN)NC(=O)[C@@H](N)CCCCN)C(N)=O` [BP2], the entries for the “Minimal Inhibitory Concentration (MIC)” value (in experiment [1]; in the experiment with MDRPA (CCARM 2109); in the experiment on MDRPA (CCARM 2095) [2]) were 8 µM, 4 µM and 8 µM, respectively. The compound further yielded an MBIC50 in experiment [3] of 8 to 16 µM. In addition, in experiment [3], the MBIC90 came out at 16 µM.

As for `CC[C@H](C)[C@H](NC(=O)[C@H](CCCCN)NC(=O)[C@H](CCCCN)NC(=O)[C@H](Cc1ccccc1)NC(=O)[C@H](CC(C)C)NC(=O)[C@H](CCCCN)NC(=O)[C@@H](N)CCCCN)C(=O)N[C@@H](Cc1c[nH]c2ccccc12)C(=O)N[C@@H](CCCCN)C(=O)N[C@@H](Cc1ccc(O)cc1)C(=O)N[C@@H](CC(C)C)C(N)=O` [BP3], the “Minimal Inhibitory Concentration (MIC)” value in experiment [1] was 32 µM; in the experiment on MDRPA (CCARM 2109), 16 µM; in the experiment on MDRPA (CCARM 2095) [2] it was 16 µM. The MBIC50 in experiment [3] lay in the range of 8 to 16 µM. The compound also returned an MBIC90 in experiment [3] of 16 µM.

As for `CC[C@H](C)[C@H](NC(=O)[C@H](CCCCN)NC(=O)[C@H](CCCCN)NC(=O)[C@H](Cc1ccccc1)NC(=O)[C@H](CC(C)C)NC(=O)[C@H](CCCCN)NC(=O)[C@@H](N)CCCCN)C(=O)N[C@@H](CC(C)C)C(=O)N[C@@H](CCCCN)C(=O)N[C@@H](Cc1c[nH]c2ccccc12)C(=O)N[C@@H](CC(C)C)C(N)=O` [BP4], the “Minimal Inhibitory Concentration (MIC)” value is 16 µM in experiment [1], 16 µM in the experiment on MDRPA (CCARM 2109) and 8 µM in the experiment with MDRPA (CCARM 2095) [2]. In experiment [3], this compound returned an MBIC50 of 4 to 8 µM. In experiment [3], this compound showed an MBIC90 of 8 µM.

Consider `CC[C@H](C)[C@H](NC(=O)[C@H](CCCCN)NC(=O)[C@H](CCCCN)NC(=O)[C@H](Cc1ccccc1)NC(=O)[C@H](CC(C)C)NC(=O)[C@H](CCCCN)NC(=O)[C@@H](N)CCCCN)C(=O)N[C@@H](CC(C)C)C(=O)N[C@@H](CCCCN)C(=O)N[C@@H](Cc1ccc(O)cc1)C(=O)N[C@@H](CC(C)C)C(N)=O` [BP100], for which the figures for the “Minimal Inhibitory Concentration (MIC)” value (in experiment [1]; with MDRPA (CCARM 2109); with MDRPA (CCARM 2095) [2]) were 16 µM, 16 µM and 32 µM, respectively. Also, the “MICA: MIC of peptide alone” value with MDRPA (CCARM 2095) [4] (checkerboard, 37 °C, 24 h) worked out at 32 µg/mL. For the same compound, the “FICI: fractional inhibitory concentration index” value with MDRPA (CCARM 2095) [4] (peptide with ciprofloxacin, [A]/MICA + [B]/MICB) was 0.375. In addition, the MBIC50 in experiment [3] lay in the range of 4 to 8 µM. Further, the MBIC90 in experiment [3] worked out at 8 µM.

On to KKLFKKILKWW-NH2 [BP12], for which the “Minimal Inhibitory Concentration (MIC)” value (in experiment [1]; in the experiment with MDRPA (CCARM 2109); in the experiment on MDRPA (CCARM 2095) [2]) was 16 µM each time. In experiment [3], this compound gave an MBIC50 of 4 to 8 µM. In experiment [3], the MBIC90 is 8 µM.

Consider KKLFKKWLKYW-NH2 [BP10], for which the “Minimal Inhibitory Concentration (MIC)” value in experiment [1] amounted to 8 µM; with MDRPA (CCARM 2109) it was 16 µM; in the experiment on MDRPA (CCARM 2095) [2] it was 16 µM. In addition, in experiment [3], the MBIC50 was in the range of 16 to 32 µM. This compound also had an MBIC90 in experiment [3] of 32 µM.

As for KKLFKKWWKWL-NH2 [BP16], the “Minimal Inhibitory Concentration (MIC)” value in experiment [1] stood at 8 µM; with MDRPA (CCARM 2109) it was 32 µM; in the experiment with MDRPA (CCARM 2095) [2], 32 µM. In experiment [3], the MBIC50 was in the range of 8 to 16 µM. In addition, the MBIC90 in experiment [3] was found to be 16 µM.

KKLFKKWWKYL-NH2 [BP9]: the “Minimal Inhibitory Concentration (MIC)” value (in experiment [1]; with MDRPA (CCARM 2109); with MDRPA (CCARM 2095) [2]) was 16 µM in each case. For the same compound, the MBIC50 in experiment [3] was in the range of 8 to 16 µM. The MBIC90 in experiment [3] is 16 µM.

Regarding KKLWKKIWKYL-NH2 [BP7], the “Minimal Inhibitory Concentration (MIC)” value in experiment [1] stood at 8 µM; in the experiment with MDRPA (CCARM 2109), 4 µM; with MDRPA (CCARM 2095) [2] it was 8 µM. This compound displayed an MBIC50 in experiment [3] of 4 to 8 µM. In experiment [3], this compound returned an MBIC90 of 8 µM.

For the compound KKLWKKIWKYW-NH2 [BP15], the “Minimal Inhibitory Concentration (MIC)” value in experiment [1] is 8 µM; with MDRPA (CCARM 2109), 8 µM; in the experiment with MDRPA (CCARM 2095) [2], 16 µM. Further, the MBIC50 in experiment [3] lay in the range of 4 to 8 µM. Moreover, in experiment [3], the MBIC90 turned out to be 8 µM.

Turning to KKLWKKWLKYW-NH2 [BP14], the “Minimal Inhibitory Concentration (MIC)” value in experiment [1] came to 8 µM; in the experiment on MDRPA (CCARM 2109), 8 µM; in the experiment on MDRPA (CCARM 2095) [2], 16 µM. This compound also had an MBIC50 in experiment [3] of 8 to 16 µM. The compound also gave an MBIC90 in experiment [3] of 16 µM.
